# Literature values, collected in patent publication US6514710B1, “Method of using cyclic peptides to inhibit binding to urokinase-type plasminogen activator receptor” (Angstrom Pharmaceuticals, Inc., priority 1996, dated 2003).
# Read-outs that look alike come from different tables or passages of the source.
# Experiments:
# [1] = molecular target: T1, uPAR (Homo sapiens, UniProt Q03405); details: read-out: IC50, prevention of uPA binding to uPAR
# [2] = tested on: murine Lewis Lung carcinoma; details: murine Lewis Lung carcinoma in mice; peptides derived from the mouse sequence
# [3] = molecular target: T1, uPAR; details: read-out: IC50, inhibition of the binding of uPA to uPAR
# T1 sequence (Q03405 23-305): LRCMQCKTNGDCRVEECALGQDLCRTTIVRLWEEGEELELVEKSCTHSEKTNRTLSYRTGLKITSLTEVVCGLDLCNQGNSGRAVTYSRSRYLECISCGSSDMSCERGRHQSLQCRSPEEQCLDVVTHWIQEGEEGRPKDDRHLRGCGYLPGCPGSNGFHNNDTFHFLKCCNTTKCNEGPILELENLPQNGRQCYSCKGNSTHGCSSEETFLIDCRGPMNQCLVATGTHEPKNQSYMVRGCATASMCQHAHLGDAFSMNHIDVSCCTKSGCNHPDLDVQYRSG
Substance,IC50 [1] [nM],IC50 [3] [nM],inhibition of spontaneous metastasis [2]
"corresponding linear shorter peptide (20-30): linear shorter peptide (20-30) corresponding to the mouse sequence (CVSYKYFSRIR; UniProt P06869 40-50, looked up, fragment)",,,had no effect
"linear peptide 20-30: linear peptide of uPA residues 20-30 (VSNKYFSNIHW; UniProt P00749 40-50, looked up, fragment)",,1000,
"peptide 17-34: longer peptide of uPA residues 17-34 (GTCVSNKYFSNIHWCNCP; UniProt P00749 37-54, looked up, fragment)",,100,
"peptide (17-34) derived from the mouse sequence: corresponding longer peptide (17-34) derived from the mouse uPA sequence (GGVCVSYKYFSRIRRCSC; UniProt P06869 37-54, looked up, fragment)",,,inhibited spontaneous metastasis

# Now from value to substance, other results behind:
IC50 [1] [nM],IC50 [3] [nM],Substance,inhibition of spontaneous metastasis [2]
100,,[Ala^19]uPA-(12-32) [[Ala^19]uPA-(12-32) open chain form],
40,,[Ala^19]uPA-(12-32) [[Ala^19]uPA-(12-32) oxidized cyclic form],
